US20240376094A2, “SELECTIVE BCL-XL PROTAC COMPOUNDS AND METHODS OF USE” (Les Laboratoires Servier, priority 2021, published 2024)

Assays:
Type in all cases: cell-based
MOLT-4 cells [1] = assay: MOLT-4 cell viability, CTG assay; settings: Homo sapiens, MOLT-4, 48 h
Procedure, shortened: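 Viability read as total ATP luminescence (CTG) after 48 h compound treatment, 11 points at 5-fold spacing in triplicate, cells in RPMI 1640/10% FBS. IC50 is the concentration halving signal relative to control, four-parameter fit, averaged over at least 2 experiments.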

MOLT-4 cells [2] = assay: MOLT-4 cell viability, MTT assay; settings: Homo sapiens, MOLT-4, 48 h
Source text: The MTT colorimetric assay is based on the mitochondrial reduction of tetrazolium salt by living cells. The viable cell number is proportional to the production of formazan salts, which can be read spectrophotometrically at 540 nm. The CTG luminescent assay (CellTiter GLO, Promega) is based on a reagent which lyses cells and measures total adenosine triphosphate (ATP) content. The viable cell number is proportional to the production of ATP.
MOLT-4 cells were purchased from ATCC and cultivated in RPMI 1640 supplemented with 10% heat inactivated fetal bovine serum, penicillin (100 IU/mi), streptomycin (100 μg/ml) and L-glutamine (2 mM). Cells were cultured at 37° C. in a humidified atmosphere containing 5% […].
For MTT assay, cells were seeded in 96 microwell plates (150 μL per well) and exposed to the compounds for 48 h (3.16 fold serially diluted; 9 concentrations each, triplicates). At the end of incubation time, 15 μL of MTT solution (5 mg/ml) were added per well and the cells were incubated for another 4 h. Then, 100 μL of 10% Sodium Dodecyl Sulfate (SDS)/HCl 10 mM were added per well and the plate was incubated overnight, before measurement of optical density at 540 nm.
IC50, were calculated using standard four-parametric curve fitting. IC50 is defined as the compound concentration at which the MTT or CTG signal is reduced to 50% of that measured for the control. Results shown in Table 14 represent the mean of at least 2 independent experiments.

Bcl-xL = molecular target: T1, Bcl-xL (Homo sapiens, UniProt Q07817); assay: HCT116 Bcl-xL degradation, capillary-based immunoassay (WES); settings: for remaining activity at 0.01 µM / remaining activity at 0.1 µM: HCT-116, 24 h, % of untreated cells; for remaining activity at 0.01 µM: HCT116, 10 nM; for remaining activity at 0.1 µM: HCT116, 100 nM; for DC50: HCT116, 24 h, 9-point serial dilution
T1 construct: Measured levels of Bcl-xL protein of HCT116 cells treated with the tested compounds; host or cells: HCT116
Procedure, shortened: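 Bcl-xL protein level by capillary WES immunoassay in HCT116 lysates, as % of untreated after cofilin normalization. Compound exposure was 24 h at 10 and 100 nM and/or a 9-point series, in quadruplicate. Four-parameter fitting gave the DC50.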

T1 sequence (Q07817 whole entry): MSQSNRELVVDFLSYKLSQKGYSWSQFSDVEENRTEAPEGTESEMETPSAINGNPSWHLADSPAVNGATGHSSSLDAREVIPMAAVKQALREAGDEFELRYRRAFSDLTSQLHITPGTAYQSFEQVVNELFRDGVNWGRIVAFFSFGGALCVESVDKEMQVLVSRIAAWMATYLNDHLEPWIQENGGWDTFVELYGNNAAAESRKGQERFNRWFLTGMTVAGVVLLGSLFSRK

SMILES	IC50 (MOLT-4 cells [1]) [nM]	IC50 (MOLT-4 cells [2]) [nM]	remaining activity at 0.01 µM (Bcl-xL) [%]	remaining activity at 0.1 µM (Bcl-xL) [%]	DC50 (Bcl-xL) [nM]
Cc1ncsc1-c1ccc([C@H](C)NC(=O)C2C[C@@H](O)CN2C(=O)C(NC(=O)CCCCCN(C)CCOC23CC4(C)CC(C)(CC(Cn5ncc(-c6ccc(N7CCCc8c7nnc(Nc7nc9ccccc9s7)c8C)nc6C(=O)O)c5C)(C4)C2)C3)C(C)(C)C)cc1 (stereo in doubt) [Example 8, 6-[3-(1,3-benzothiazol-2-ylamino)-4-methyl-6,7-dihydro-5H-pyrido[2,3-c]pyridazin-8-yl]-3-[1-[[3-[2-[[6-[[(1S)-1-[(2S,4R)-4-hydroxy-2-[[(1S)-1-[4-(4-methylthiazol-5-yl)phenyl]ethyl]carbamoyl]pyrrolidine-1-carbonyl]-2,2-dimethyl-propyl]amino]-6-oxo-hexyl]-methyl-amino]ethoxy]-5,7-dimethyl-1-adamantyl]methyl]-5-methyl-pyrazol-4-yl]pyridine-2-carboxylic acid]	34.3	6.56	54	37	
Cc1ncsc1-c1ccc(CNC(=O)[C@@H]2C[C@@H](O)CN2C(=O)[C@@H](NC(=O)CCCCCCC(=O)N2CCN(CC#Cc3ccc(OCCCc4sc(N5CCCc6c5nnc(Nc5nc7ccccc7s5)c6C)nc4C(=O)O)c(F)c3)CC2)C(C)(C)C)cc1 [Example 20, 2-[3-(1,3-benzothiazol-2-ylamino)-4-methyl-6,7-dihydro-5H-pyrido[2,3-c]pyridazin-8-yl]-5-[3-[2-fluoro-4-[3-[4-[8-[[(1S)-1-[(2S,4R)-4-hydroxy-2-[[4-(4-methylthiazol-5-yl)phenyl]methylcarbamoyl]pyrrolidine-1-carbonyl]-2,2-dimethyl-propyl]amino]-8-oxo-octanoyl]piperazin-1-yl]prop-1-ynyl]phenoxy]propyl]thiazole-4-carboxylic acid]		4.49	51	31	
CNCC#Cc1ccc(OCCCc2sc(N(CCCc3cn(CCOCCOCCOCCNC(=O)COc4cccc5c4C(=O)N(C4CCC(=O)NC4=O)C5=O)nn3)c3cc(C)c(Nc4nc5ccccc5s4)nn3)nc2C(=O)O)c(F)c1 (centres unmarked) [Example 27, 2-[[6-(1,3-benzothiazol-2-ylamino)-5-methyl-pyridazin-3-yl]-[3-[1-[2-[2-[2-[2-[[2-[2-(2,6-dioxo-3-piperidyl)-1,3-dioxo-isoindolin-4-yl]oxyacetyl]amino]ethoxy]ethoxy]ethoxy]ethyl]triazol-4-yl]propyl]amino]-5-[3-[2-fluoro-4-[3-(methylamino)prop-1-ynyl]phenoxy]propyl]thiazole-4-carboxylic acid]		669	60	49	
Cc1cc(N(CCCCCn2cc(COCCOCCOCC(=O)Nc3cccc4c3CN(C3CCC(=O)NC3=O)C4=O)nn2)c2ccc(-c3cnn(CC45CC6(C)CC(C)(C4)CC(OCCN(C)C)(C6)C5)c3C)c(C(=O)O)n2)nnc1Nc1nc2ccccc2s1 (centres unmarked) [Example 28, 6-[[6-(1,3-benzothiazol-2-ylamino)-5-methyl-pyridazin-3-yl]-[5-[4-[2-[2-[2-[[2-(2,6-dioxo-3-piperidyl)-1-oxo-isoindolin-4-yl]amino]-2-oxo-ethoxy]ethoxy]ethoxymethyl]triazol-1-yl]pentyl]amino]-3-[1-[[3-[2-(dimethylamino)ethoxy]-5,7-dimethyl-1-adamantyl]methyl]-5-methyl-pyrazol-4-yl]pyridine-2-carboxylic acid]		8.63	81	46	
Cc1cc(N(CCCCCn2cc(COCCOCCOCCNC(=O)COc3cccc4c3C(=O)N(C3CCC(=O)NC3=O)C4=O)nn2)c2ccc(-c3cnn(CC45CC6(C)CC(C)(C4)CC(OCCN(C)C)(C6)C5)c3C)c(C(=O)O)n2)nnc1Nc1nc2ccccc2s1 (centres unmarked) [Example 63, 6-[[6-(1,3-benzothiazol-2-ylamino)-5-methyl-pyridazin-3-yl]-[5-[4-[2-[2-[2-[[2-[2-(2,6-dioxo-3-piperidyl)-1,3-dioxo-isoindolin-4-yl]oxyacetyl]amino]ethoxy]ethoxy]ethoxymethyl]triazol-1-yl]pentyl]amino]-3-[1-[[3-[2-(dimethylamino)ethoxy]-5,7-dimethyl-1-adamantyl]methyl]-5-methyl-pyrazol-4-yl]pyridine-2-carboxylic acid]		86.4	61	39	53
Cc1c(Nc2nc3ccccc3s2)nnc2c1CCCN2c1ccc(-c2cnn(CC34CC5(C)CC(C)(C3)CC(OCCN(C)CCCCCCCCCCCCOc3ccc6c(c3)C(=O)N(C3CCC(=O)NC3=O)C6=O)(C5)C4)c2C)c(C(=O)O)n1 (centres unmarked) [Example 140, 6-[3-(1,3-benzothiazol-2-ylamino)-4-methyl-6,7-dihydro-5H-pyrido[2,3-c]pyridazin-8-yl]-3-[1-[[3-[2-[12-[2-(2,6-dioxo-3-piperidyl)-1,3-dioxo-isoindolin-5-yl]oxydodecyl-methyl-amino]ethoxy]-5,7-dimethyl-1-adamantyl]methyl]-5-methyl-pyrazol-4-yl]pyridine-2-carboxylic acid]		0.311			3.08

Continued, values first:

IC50 (MOLT-4 cells [1]) [nM]	IC50 (MOLT-4 cells [2]) [nM]	remaining activity at 0.01 µM (Bcl-xL) [%]	remaining activity at 0.1 µM (Bcl-xL) [%]	DC50 (Bcl-xL) [nM]	SMILES
	16.4	46	16	7.49	Cc1cc(N(CCCCCn2cc(COCCOCCNc3cccc4c3C(=O)N(C3CCC(=O)NC3=O)C4=O)nn2)c2ccc(-c3cnn(CC45CC6(C)CC(C)(C4)CC(OCCN(C)C)(C6)C5)c3C)c(C(=O)O)n2)nnc1Nc1nc2ccccc2s1 (centres unmarked) [Example 61, 6-[[6-(1,3-benzothiazol-2-ylamino)-5-methyl-pyridazin-3-yl]-[5-[4-[2-[2-[[2-(2,6-dioxo-3-piperidyl)-1,3-dioxo-isoindolin-4-yl]amino]ethoxy]ethoxymethyl]triazol-1-yl]pentyl]amino]-3-[1-[[3-[2-(dimethylamino)ethoxy]-5,7-dimethyl-1-adamantyl]methyl]-5-methyl-pyrazol-4-yl]pyridine-2-carboxylic acid]
	24.1	47	7	13.6	Cc1cc(N(CCCCCn2cc(COCCOCCOCCNc3cccc4c3C(=O)N(C3CCC(=O)NC3=O)C4=O)nn2)c2ccc(-c3cnn(C[C@@]45C[C@]6(C)C[C@](C)(C4)C[C@](OCCN(C)C)(C6)C5)c3C)c(C(=O)O)n2)nnc1Nc1nc2ccccc2s1 (some centres unmarked) [Example 62, 6-[[6-(1,3-benzothiazol-2-ylamino)-5-methyl-pyridazin-3-yl]-[5-[4-[2-[2-[2-[[2-(2,6-dioxo-3-piperidyl)-1,3-dioxo-isoindolin-4-yl]amino]ethoxy]ethoxy]ethoxymethyl]triazol-1-yl]pentyl]amino]-3-[1-[[3-[2-(dimethylamino)ethoxy]-5,7-dimethyl-1-adamantyl]methyl]-5-methyl-pyrazol-4-yl]pyridine-2-carboxylic acid]
	19.3			14.5	Cc1cc(N(CCCCCn2cc(CCCCCCCNc3cccc4c3C(=O)N(C3CCC(=O)NC3=O)C4=O)nn2)c2ccc(-c3cnn(CC45CC6(C)CC(C)(C4)CC(OCCN(C)C)(C6)C5)c3C)c(C(=O)O)n2)nnc1Nc1nc2ccccc2s1 (centres unmarked) [Example 150, 6-[[6-(1,3-benzothiazol-2-ylamino)-5-methyl-pyridazin-3-yl]-[5-[4-[7-[[2-(2,6-dioxo-3-piperidyl)-1,3-dioxo-isoindolin-4-yl]amino]heptyl]triazol-1-yl]pentyl]amino]-3-[1-[[3-[2-(dimethylamino)ethoxy]-5,7-dimethyl-1-adamantyl]methyl]-5-methyl-pyrazol-4-yl]pyridine-2-carboxylic acid]
	27.5	59	40		Cc1cc(N(CCCCCn2cc(COCCOCCOCCOCCNc3cccc4c3C(=O)N(C3CCC(=O)NC3=O)C4=O)nn2)c2ccc(-c3cnn(CC45CC6(C)CC(C)(C4)CC(OCCN(C)C)(C6)C5)c3C)c(C(=O)O)n2)nnc1Nc1nc2ccccc2s1 (centres unmarked) [Example 153, 6-[[6-(1,3-benzothiazol-2-ylamino)-5-methyl-pyridazin-3-yl]-[5-[4-[2-[2-[2-[2-[[2-(2,6-dioxo-3-piperidyl)-1,3-dioxo-isoindolin-4-yl]amino]ethoxy]ethoxy]ethoxy]ethoxymethyl]triazol-1-yl]pentyl]amino]-3-[1-[[3-[2-(dimethylamino)ethoxy]-5,7-dimethyl-1-adamantyl]methyl]-5-methyl-pyrazol-4-yl]pyridine-2-carboxylic acid]
